Where two headings read alike, the source gives them in different places.
Tests used:
[1] = system: 1321N1 astrocyte cell line; assay: 1321N1 oxidative stress assay (serum withdrawal, DCF); details: for 1321N1 oxidative stress assay Toxic dose: minimum dose at which toxicity was observed; for Emax: 1321-N1, 24 h, read-out: 1321N1 oxidative stress assay Max reduction
Method: (§1) Media were then replaced with serum-free, phenol-free media for 5 h.

C6 astrocyte cell line = assay: C6 oxidative stress assay (serum withdrawal, DCF); details: for IC50: read-out: C6 oxidative stress assay IC50; for C6 oxidative stress assay Toxic dose: minimum dose at which toxicity was observed; for Emax: 24 h, read-out: C6 oxidative stress assay Max reduction
Method: as §1

NSC34 cells = assay: NSC34 oxidative stress assay (serum withdrawal, DCF); details: for NSC34 oxidative stress assay Toxic dose: minimum dose at which toxicity was observed; for Emax: NSC-34, 24 h, read-out: NSC34 oxidative stress assay Max reduction
Method: as §1

Nrf2-ARE pathway = assay: ARE reporter assay in CHO 4xARE-TK-GFP cells (Spectrum library hits); details: for Toxic dose: lowest dose at which a reduction in GFP fluorescence was observed; for maximal fold induction: CHO, read-out: Fold GFP induction
Method: The Z′ score was calculated as follows Z′=1−(3SD^++3SD^−)/(Ave^+–Ave^−) where SD^+ = standard deviation of positive control wells; SD^− = standard deviation of negative control wells; Ave^+ = average fluorescence reading of positive control wells; Ave^− = average fluorescence reading of negative control wells.
Media was removed by hand and replaced (1 compound/well) with the Spectrum library diluted to 10 μM in 0.1% DMSO using a Q-bot liquid handling system (Genetix, New Milton, UK). […] The TK-GFP CHO ARE cell line was screened twice in a single point assay and the control TK-GFP CHO cell line was screened once to eliminate false positives.
The compounds were applied in triplicate to confluent cells in 96 well plates in serum free medium for 24 hours and the induction of GFP measured in a fluorescence plate reader.
In order to screen the Spectrum collection of 2000 molecules the reporter assay was optimised in […]. To assess the suitability of the assay for library screening, a Z’ score calculation was performed by treating alternate wells with vehicle (0.1% DMSO) and 10 µM Ebselen as a positive control (see calculation in Methods). […] The library was subsequently screened at a single point concentration of 10µM for every compound. Drug library dilutions and plating were performed with a Q-BOT liquid handling system and both the 4xARE-TK-GFP reporter cell line and TK-GFP control cell line were tested for their response to the compounds. Hits were identified as having data points more than three standard deviations above the background level, which was the average value of 24 wells treated with vehicle (0.1% DMSO) only. Hit compounds were checked to see if they generated a response in the control cell line, for example by non-specific activation of transcription or autofluorescence. […] The library screen was repeated once in the 4xARE –TK-CHO cell line and compounds classed as hits in both screens were taken forward for further assessment.

[2] = maximum % inhibition of DCF signal
[3] = average fold over baseline at the maximal response, CHO cells, 24 h
[4] = Homo sapiens, 1321-N1, read-out: 1321N1 oxidative stress assay IC50

**Q.** Which “1321N1 oxidative stress assay Max reduction” value [1] does the source give for 3-α-Hydroxygedinin here?
**A.** 25%

**Q.** And the “C6 oxidative stress assay Max reduction” value (C6 astrocyte cell line)?
**A.** 42%

**Q.** And the IC50 (C6 astrocyte cell line)?
**A.** 3.22 µM

**Q.** And the “NSC34 oxidative stress assay Max reduction” value (NSC34 cells)?
**A.** 14%

**Q.** What about the “Fold GFP induction” value (Nrf2-ARE pathway) of the same compound?
**A.** 3.01 fold

**Q.** How did the “1321N1 oxidative stress assay Max reduction” value [1, 2] turn out when 3β Hydroxydeoxydesacetoxy-7-oxogedunin was run?
**A.** 62%

**Q.** And the “1321N1 oxidative stress assay Toxic dose” value [1]?
**A.** None

**Q.** What about the IC50 ([1]; read-out: 1321N1 oxidative stress assay IC50, 24-h preconditioning, 6-h serum withdrawal, DCF fluorescence) of the same compound?
**A.** 3.96 µM

**Q.** What about the “C6 oxidative stress assay Max reduction” value (C6 astrocyte cell line; [2]) of the same compound?
**A.** 67%

**Q.** And the “C6 oxidative stress assay Toxic dose” value (C6 astrocyte cell line)?
**A.** None

**Q.** What about the IC50 (C6 astrocyte cell line; 24-h preconditioning, 6-h serum withdrawal, DCF fluorescence) of the same compound?
**A.** 3.07 µM

**Q.** And the “NSC34 oxidative stress assay Max reduction” value (NSC34 cells; maximum % inhibition of DCF signal, negative = prooxidant)?
**A.** 0%

**Q.** What about the “NSC34 oxidative stress assay Toxic dose” value (NSC34 cells) of the same compound?
**A.** 3 µM

**Q.** What about the EC50 (Nrf2-ARE pathway; CHO ARE reporter, 7-point concentration response) of the same compound?
**A.** 8.71 µM

**Q.** And the “Fold GFP induction” value (Nrf2-ARE pathway; [3])?
**A.** 2.55 fold

**Q.** And the Toxic dose (Nrf2-ARE pathway)?
**A.** 30 µM

**Q.** Which results are given for COc1cc(O)c(C)c(O)c1 [2,6-Dihydroxy-4-methoxytoluene]?
**A.** Emax ([1]; Homo sapiens): 40%; 1321N1 oxidative stress assay Toxic dose [1]: None; Emax (C6 astrocyte cell line; Rattus norvegicus, Astrocyte): 16%; IC50 (C6 astrocyte cell line; Rattus norvegicus, Astrocyte): 5.29 µM; C6 oxidative stress assay Toxic dose (C6 astrocyte cell line): 10 µM; Emax (NSC34 cells; Mus musculus): 28%; IC50 (NSC34 cells; Mus musculus, NSC-34, read-out: NSC34 oxidative stress assay IC50): ~3.26 µM; NSC34 oxidative stress assay Toxic dose (NSC34 cells): None; EC50 (Nrf2-ARE pathway; Cricetulus griseus): 45 µM; Toxic dose (Nrf2-ARE pathway): 100 µM

**Q.** Cc1[nH]c2ccccc2c1CN(C)C [2-Methyl gramine] was tested. Which Emax ([1]; Homo sapiens) did it give?
**A.** 36%

**Q.** What about the IC50 [1, 4] of the same compound?
**A.** 11 µM

**Q.** What about the “1321N1 oxidative stress assay Toxic dose” value [1] of the same compound?
**A.** none

**Q.** And the Emax (C6 astrocyte cell line; Rattus norvegicus, Astrocyte)?
**A.** 36%

**Q.** And the IC50 (C6 astrocyte cell line; Rattus norvegicus, Astrocyte)?
**A.** 32 µM

**Q.** What about the “C6 oxidative stress assay Toxic dose” value (C6 astrocyte cell line) of the same compound?
**A.** none

**Q.** What about the Emax (NSC34 cells; Mus musculus) of the same compound?
**A.** -30%

**Q.** What about the “NSC34 oxidative stress assay Toxic dose” value (NSC34 cells) of the same compound?
**A.** 3 µM

**Q.** What about the EC50 (Nrf2-ARE pathway; Cricetulus griseus) of the same compound?
**A.** 3 µM

**Q.** And the maximal fold induction (Nrf2-ARE pathway; Cricetulus griseus, 24 h)?
**A.** 2.27

**Q.** What about the Toxic dose (Nrf2-ARE pathway) of the same compound?
**A.** 100 µM

**Q.** Which Emax ([1]; Homo sapiens) does the source give for CC(=O)OC1CC[C@@]2(C)C(CC[C@H]3[C@@H]4CC=C(C(C)=O)[C@@]4(C)C(=O)C[C@@H]32)C1 (some centres unmarked) [3 Acetoxypregn-16-en-12,20-dione] here?
**A.** 75%

**Q.** And the IC50 [1, 4]?
**A.** 12.4 µM

**Q.** What about the “1321N1 oxidative stress assay Toxic dose” value [1] of the same compound?
**A.** None

**Q.** What about the Emax (C6 astrocyte cell line; Rattus norvegicus, Astrocyte) of the same compound?
**A.** 50%

**Q.** And the IC50 (C6 astrocyte cell line; Rattus norvegicus, Astrocyte)?
**A.** 5.34 µM

**Q.** And the “C6 oxidative stress assay Toxic dose” value (C6 astrocyte cell line)?
**A.** None

**Q.** What about the Emax (NSC34 cells; Mus musculus) of the same compound?
**A.** 0%

**Q.** And the “NSC34 oxidative stress assay Toxic dose” value (NSC34 cells)?
**A.** None

**Q.** And the EC50 (Nrf2-ARE pathway; Cricetulus griseus)?
**A.** 2.98 µM

**Q.** What about the Toxic dose (Nrf2-ARE pathway) of the same compound?
**A.** 30 µM

**Q.** How did the Emax ([1]; Homo sapiens) turn out when COc1cccc(O)c1O [3-Methoxycatechol] was run?
**A.** 39%

**Q.** What about the “1321N1 oxidative stress assay Toxic dose” value [1] of the same compound?
**A.** none

**Q.** And the Emax (C6 astrocyte cell line; Rattus norvegicus, Astrocyte)?
**A.** 46%

**Q.** And the IC50 (C6 astrocyte cell line; Rattus norvegicus, Astrocyte)?
**A.** 1.2 µM

**Q.** What about the “C6 oxidative stress assay Toxic dose” value (C6 astrocyte cell line) of the same compound?
**A.** 10 µM

**Q.** And the Emax (NSC34 cells; Mus musculus)?
**A.** -13%

**Q.** What about the “NSC34 oxidative stress assay Toxic dose” value (NSC34 cells) of the same compound?
**A.** 0.3 µM

**Q.** What about the EC50 (Nrf2-ARE pathway; Cricetulus griseus) of the same compound?
**A.** 15.4 µM

**Q.** What about the Toxic dose (Nrf2-ARE pathway) of the same compound?
**A.** 100 µM

**Q.** How did the Emax ([1]; Homo sapiens) turn out when Cc1cc(O)c(C)c(O)c1C(=O)O [3-Methylorsellinic acid] was run?
**A.** 53%

**Q.** What about the IC50 [1, 4] of the same compound?
**A.** 3.26 µM

**Q.** And the “1321N1 oxidative stress assay Toxic dose” value [1]?
**A.** none

**Q.** What about the Emax (C6 astrocyte cell line; Rattus norvegicus, Astrocyte) of the same compound?
**A.** 56%

**Q.** And the IC50 (C6 astrocyte cell line; Rattus norvegicus, Astrocyte)?
**A.** 3.1 µM

**Q.** And the “C6 oxidative stress assay Toxic dose” value (C6 astrocyte cell line)?
**A.** none

**Q.** And the Emax (NSC34 cells; Mus musculus)?
**A.** -12%

**Q.** And the “NSC34 oxidative stress assay Toxic dose” value (NSC34 cells)?
**A.** 0.3 µM

**Q.** And the EC50 (Nrf2-ARE pathway; Cricetulus griseus)?
**A.** 9.59 µM

**Q.** What about the Toxic dose (Nrf2-ARE pathway) of the same compound?
**A.** 100 µM

**Q.** Which Emax ([1]; Homo sapiens) does the source give for CC(=O)Oc1ccc(O)cc1 [4-Acetoxyphenol] here?
**A.** 42%

**Q.** And the IC50 [1, 4]?
**A.** 0.298 µM

**Q.** And the “1321N1 oxidative stress assay Toxic dose” value [1]?
**A.** none

**Q.** And the Emax (C6 astrocyte cell line; Rattus norvegicus, Astrocyte)?
**A.** 0%

**Q.** What about the “C6 oxidative stress assay Toxic dose” value (C6 astrocyte cell line) of the same compound?
**A.** none

**Q.** And the Emax (NSC34 cells; Mus musculus)?
**A.** -70%

**Q.** What about the “NSC34 oxidative stress assay Toxic dose” value (NSC34 cells) of the same compound?
**A.** none

**Q.** What about the EC50 (Nrf2-ARE pathway; Cricetulus griseus) of the same compound?
**A.** 2.91 µM

**Q.** And the Toxic dose (Nrf2-ARE pathway)?
**A.** 100 µM

**Q.** Which results are given for COc1ccc(/C=C/C(=O)c2ccccc2)cc1 [4-Methoxychalcone]?
**A.** Emax ([1]; Homo sapiens): 30%; IC50 [1, 4]: 3.6 µM; 1321N1 oxidative stress assay Toxic dose [1]: None; Emax (C6 astrocyte cell line; Rattus norvegicus, Astrocyte): 82%; IC50 (C6 astrocyte cell line; Rattus norvegicus, Astrocyte): 3.55 µM; C6 oxidative stress assay Toxic dose (C6 astrocyte cell line): None; Emax (NSC34 cells; Mus musculus): 24%; NSC34 oxidative stress assay Toxic dose (NSC34 cells): None; EC50 (Nrf2-ARE pathway; Cricetulus griseus): 15 µM; Fold GFP induction (Nrf2-ARE pathway; [3]): 2.13 fold; Toxic dose (Nrf2-ARE pathway): 100 µM

**Q.** With C=CC(C1=CC(=O)C(OC)=CC1=O)c1ccccc1 (centres unmarked) [4-Methoxydalbergione] as the compound, how does the Emax ([1]; Homo sapiens) read?
**A.** 43%

**Q.** What about the “1321N1 oxidative stress assay Toxic dose” value [1] of the same compound?
**A.** none

**Q.** What about the Emax (C6 astrocyte cell line; Rattus norvegicus, Astrocyte) of the same compound?
**A.** 14%

**Q.** And the IC50 (C6 astrocyte cell line; Rattus norvegicus, Astrocyte)?
**A.** 2.5 µM

**Q.** And the “C6 oxidative stress assay Toxic dose” value (C6 astrocyte cell line)?
**A.** none

**Q.** And the Emax (NSC34 cells; Mus musculus)?
**A.** -44%

**Q.** And the “NSC34 oxidative stress assay Toxic dose” value (NSC34 cells)?
**A.** none

**Q.** And the maximal fold induction (Nrf2-ARE pathway; Cricetulus griseus, 24 h)?
**A.** 2.11

**Q.** What about the Toxic dose (Nrf2-ARE pathway) of the same compound?
**A.** 100 µM

— article PMC3684770 (Free Radical Biology & Medicine, 2013)
